Results reported in ChEMBL document CHEMBL4800722, “Data for DCP probe BI 605906” (2021).
Activity calls are given as the source filed them. The calls are words filed in the database; no cut-off is given here.

How the values were obtained:
[1] = molecular target: Calcium/calmodulin-dependent protein kinase type IV (Homo sapiens) (UniProt Q16566); assay: CAMK4 Invitrogen Lab (UK) kinase screen (BI); settings: Compound concentration 1.0 uM
[2] = molecular target: Cyclin-dependent kinase 9 (Homo sapiens) (UniProt P50750); assay: CDK9CYCLIN Invitrogen Lab (UK) kinase screen (BI); settings: Compound concentration 1.0 uM
[3] = molecular target: Cyclin-dependent kinase 5/CDK5 activator 1 (Homo sapiens) (UniProt Q00535+Q15078); settings: Compound concentration 1.0 uM
[4] = molecular target: AMPK alpha2/beta1/gamma1 (Homo sapiens) (UniProt P54646+P54619+Q9Y478); assay: AMPK A2B1G1 Invitrogen Lab (UK) kinase screen (BI); format: protein-complex assay; settings: Compound concentration 1.0 uM
[5] = molecular target: Receptor tyrosine-protein kinase erbB-2 (Homo sapiens) (UniProt P04626)
[6] = molecular target: Beta-3 adrenergic receptor (Homo sapiens) (UniProt P13945); settings: Compound concentration 10.0 uM
[7] = molecular target: Muscarinic acetylcholine receptor M2 (Homo sapiens) (UniProt P08172); settings: Compound concentration 10.0 uM
[8] = molecular target: PAS domain-containing serine/threonine-protein kinase (Homo sapiens) (UniProt Q96RG2); assay: PASK Invitrogen Lab (UK) kinase screen (BI); settings: Compound concentration 1.0 uM
Rattus norvegicus = species: Rattus norvegicus; settings: Compound concentration 10.0 uM
[9] = molecular target: Serine/threonine-protein kinase PAK 6 (Homo sapiens) (UniProt Q9NQU5); settings: Compound concentration 1.0 uM
[10] = molecular target: ATP-sensitive inward rectifier potassium channel 1 isoform X1 (Mesocricetus auratus) (UniProt A0A1U8CU73); assay: K+/KATP/HA Eurofins SafetyScreen44 (BI); settings: Cricetinae; Compound concentration 10.0 uM
[11] = molecular target: Ribosomal protein S6 kinase alpha-3 (Homo sapiens) (UniProt P51812); assay: MAPKAP-K1B DUNDEE kinase screen (BI); settings: Compound concentration 10.0 uM
[12] = molecular target: BDNF/NT-3 growth factors receptor (Homo sapiens) (UniProt Q16620); settings: Compound concentration 1.0 uM
[13] = molecular target: Tyrosine-protein kinase Fyn (Homo sapiens) (UniProt P06241); settings: Compound concentration 1.0 uM
[14] = molecular target: Casein kinase I isoform delta (Homo sapiens) (UniProt P48730); settings: Compound concentration 1.0 uM
[15] = molecular target: MAP kinase-interacting serine/threonine-protein kinase 1 (Homo sapiens) (UniProt Q9BUB5); assay: MNK1 DUNDEE kinase screen (BI); settings: Compound concentration 10.0 uM
[16] = molecular target: Serine/threonine-protein kinase PLK3 (Homo sapiens) (UniProt Q9H4B4); settings: Compound concentration 1.0 uM
[17] = molecular target: Adrenergic receptor alpha-2 (Rattus norvegicus) (UniProt P22086+P19328+P22909); assay: ALPHA2/R Eurofins SafetyScreen44 (BI); format: protein assay
[18] = molecular target: MAP/microtubule affinity-regulating kinase 3 (Homo sapiens) (UniProt P27448); assay: MARK3 DUNDEE kinase screen (BI); settings: Compound concentration 10.0 uM
[19] = molecular target: CDK2/Cyclin A1 (Homo sapiens) (UniProt P24941+P78396); assay: CDK2/CYCLIN A1 Invitrogen Lab (UK) kinase screen (BI); format: protein-complex assay; settings: Compound concentration 1.0 uM
[20] = molecular target: Muscarinic acetylcholine receptor M3 (Homo sapiens) (UniProt P20309); settings: Compound concentration 10.0 uM
[21] = molecular target: Protein kinase C epsilon type (Homo sapiens) (UniProt Q02156); assay: PRKCE Invitrogen Lab (UK) kinase screen (BI); settings: Compound concentration 1.0 uM
[22] = molecular target: GABA B receptor (Rattus norvegicus) (UniProt Q9Z0U4+O88871); assay: GABAB/RA Eurofins SafetyScreen44 (BI); format: protein-complex assay; settings: Compound concentration 10.0 uM
[23] = molecular target: Mitogen-activated protein kinase 1 (Homo sapiens) (UniProt P28482)
[24] = molecular target: Serine/threonine-protein kinase PAK 1 (Homo sapiens) (UniProt Q13153); settings: Compound concentration 1.0 uM
[25] = molecular target: Glycogen synthase kinase-3 beta (Homo sapiens) (UniProt P49841)
[26] = molecular target: AMPK alpha2/beta2/gamma1 (Homo sapiens) (UniProt P54646+O43741+P54619); assay: AMPK (A2/B2/G1) Invitrogen Lab (UK) kinase screen (BI); format: protein-complex assay; settings: Compound concentration 1.0 uM
[27] = molecular target: D(1A) dopamine receptor (Homo sapiens) (UniProt P21728); settings: Compound concentration 10.0 uM
[28] = molecular target: Mitogen-activated protein kinase 14 (Homo sapiens) (UniProt Q16539)
[29] = molecular target: Mitogen-activated protein kinase kinase kinase 20 (Homo sapiens) (UniProt Q9NYL2); settings: Compound concentration 1.0 uM
[30] = molecular target: Dual specificity tyrosine-phosphorylation-regulated kinase 1A (Homo sapiens) (UniProt Q13627); settings: Compound concentration 1.0 uM
[31] = molecular target: Calpain-1 catalytic subunit (Homo sapiens) (UniProt P07384); settings: Compound concentration 10.0 uM
[32] = molecular target: Inhibitor of nuclear factor kappa-B kinase subunit beta (Homo sapiens, UniProt O14920); assay: Biochemical assay
[33] = molecular target: Dual specificity tyrosine-phosphorylation-regulated kinase 4 (Homo sapiens) (UniProt Q9NR20); settings: Compound concentration 1.0 uM
[34] = molecular target: Serine/threonine-protein kinase 38 (Homo sapiens) (UniProt Q15208); assay: STK38 (NDR) Invitrogen Lab (UK) kinase screen (BI); settings: Compound concentration 1.0 uM
[35] = molecular target: Vasopressin V1a receptor (Homo sapiens) (UniProt P37288)
[36] = molecular target: STE20/SPS1-related proline-alanine-rich protein kinase (Homo sapiens) (UniProt Q9UEW8); assay: STK39 (STLK3) Invitrogen Lab (UK) kinase screen (BI); settings: Compound concentration 1.0 uM
[37] = molecular target: D(2) dopamine receptor (Homo sapiens) (UniProt P14416); settings: Compound concentration 10.0 uM
[38] = molecular target: Ribosomal protein S6 kinase alpha-1 (Homo sapiens) (UniProt Q15418); settings: Compound concentration 1.0 uM
[39] = molecular target: Serine/threonine-protein kinase Sgk3 (Homo sapiens) (UniProt Q96BR1); settings: Compound concentration 1.0 uM
[40] = molecular target: 5-hydroxytryptamine receptor 1D (Homo sapiens) (UniProt P28221); settings: Compound concentration 10.0 uM
[41] = Compound concentration 100.0 uM

Vasopressin V1a receptor (Homo sapiens), sequence (P37288 whole entry, looked up): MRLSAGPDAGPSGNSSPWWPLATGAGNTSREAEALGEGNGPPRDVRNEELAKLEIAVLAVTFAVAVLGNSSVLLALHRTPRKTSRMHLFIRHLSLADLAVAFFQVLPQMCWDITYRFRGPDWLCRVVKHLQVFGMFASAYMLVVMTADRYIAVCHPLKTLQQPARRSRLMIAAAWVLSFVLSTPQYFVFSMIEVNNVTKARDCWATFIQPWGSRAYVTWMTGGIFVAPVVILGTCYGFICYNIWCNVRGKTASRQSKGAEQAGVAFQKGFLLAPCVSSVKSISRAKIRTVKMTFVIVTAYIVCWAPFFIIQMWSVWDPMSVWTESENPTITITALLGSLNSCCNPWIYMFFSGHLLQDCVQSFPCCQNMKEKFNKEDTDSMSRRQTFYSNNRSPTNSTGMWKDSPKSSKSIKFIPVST
Glycogen synthase kinase-3 beta (Homo sapiens), sequence (P49841 whole entry, looked up): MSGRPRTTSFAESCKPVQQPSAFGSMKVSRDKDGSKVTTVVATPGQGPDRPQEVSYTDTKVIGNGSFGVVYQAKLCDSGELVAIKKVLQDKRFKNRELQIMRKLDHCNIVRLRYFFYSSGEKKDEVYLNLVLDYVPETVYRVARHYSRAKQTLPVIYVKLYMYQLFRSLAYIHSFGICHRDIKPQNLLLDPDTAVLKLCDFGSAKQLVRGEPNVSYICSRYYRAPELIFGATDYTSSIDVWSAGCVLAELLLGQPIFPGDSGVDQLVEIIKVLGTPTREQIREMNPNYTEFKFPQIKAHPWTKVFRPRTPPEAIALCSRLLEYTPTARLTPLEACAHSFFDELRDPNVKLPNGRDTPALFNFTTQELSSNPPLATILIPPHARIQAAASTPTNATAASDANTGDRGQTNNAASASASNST
Mitogen-activated protein kinase 14 (Homo sapiens), sequence (Q16539 whole entry): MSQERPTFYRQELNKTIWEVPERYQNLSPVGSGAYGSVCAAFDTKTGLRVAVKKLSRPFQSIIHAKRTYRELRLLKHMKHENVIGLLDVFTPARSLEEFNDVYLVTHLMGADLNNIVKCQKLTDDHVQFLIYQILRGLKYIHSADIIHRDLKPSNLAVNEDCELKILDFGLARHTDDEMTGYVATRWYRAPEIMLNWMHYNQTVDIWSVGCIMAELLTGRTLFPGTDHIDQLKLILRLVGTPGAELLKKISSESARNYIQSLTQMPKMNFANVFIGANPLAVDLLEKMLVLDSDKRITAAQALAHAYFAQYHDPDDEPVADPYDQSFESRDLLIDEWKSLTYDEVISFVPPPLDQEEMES
Receptor tyrosine-protein kinase erbB-2 (Homo sapiens), sequence (P04626 whole entry): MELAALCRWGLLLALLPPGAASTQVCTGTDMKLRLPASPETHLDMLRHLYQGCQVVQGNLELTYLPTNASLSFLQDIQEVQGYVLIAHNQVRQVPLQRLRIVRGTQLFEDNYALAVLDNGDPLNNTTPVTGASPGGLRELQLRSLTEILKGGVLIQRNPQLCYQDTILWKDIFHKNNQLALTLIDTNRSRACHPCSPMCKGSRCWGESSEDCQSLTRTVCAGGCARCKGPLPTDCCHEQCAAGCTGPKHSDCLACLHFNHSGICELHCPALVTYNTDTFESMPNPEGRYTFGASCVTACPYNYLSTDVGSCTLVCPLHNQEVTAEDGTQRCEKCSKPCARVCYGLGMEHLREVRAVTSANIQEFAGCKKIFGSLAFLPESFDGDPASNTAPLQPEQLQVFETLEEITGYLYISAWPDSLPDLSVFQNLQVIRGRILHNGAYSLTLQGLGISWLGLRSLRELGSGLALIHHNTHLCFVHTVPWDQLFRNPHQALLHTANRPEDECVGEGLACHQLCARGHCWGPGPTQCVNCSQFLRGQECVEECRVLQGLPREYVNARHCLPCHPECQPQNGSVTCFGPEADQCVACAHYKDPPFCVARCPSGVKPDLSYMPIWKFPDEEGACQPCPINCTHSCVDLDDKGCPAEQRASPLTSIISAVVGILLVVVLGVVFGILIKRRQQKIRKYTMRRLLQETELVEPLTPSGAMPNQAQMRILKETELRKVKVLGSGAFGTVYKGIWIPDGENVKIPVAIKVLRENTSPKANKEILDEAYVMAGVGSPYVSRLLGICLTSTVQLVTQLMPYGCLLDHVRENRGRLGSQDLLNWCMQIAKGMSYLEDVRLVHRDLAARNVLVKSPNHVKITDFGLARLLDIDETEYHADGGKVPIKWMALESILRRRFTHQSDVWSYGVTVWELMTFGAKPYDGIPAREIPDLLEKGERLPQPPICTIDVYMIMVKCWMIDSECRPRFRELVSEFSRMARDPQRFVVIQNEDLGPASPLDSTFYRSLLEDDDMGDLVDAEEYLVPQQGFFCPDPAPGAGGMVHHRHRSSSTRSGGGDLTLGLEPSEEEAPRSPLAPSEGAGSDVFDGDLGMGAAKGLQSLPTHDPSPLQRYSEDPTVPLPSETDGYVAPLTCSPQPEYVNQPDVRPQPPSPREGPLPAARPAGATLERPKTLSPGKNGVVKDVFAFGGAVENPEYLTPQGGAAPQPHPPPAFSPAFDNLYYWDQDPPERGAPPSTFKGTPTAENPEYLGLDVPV
Mitogen-activated protein kinase 1 (Homo sapiens), sequence (P28482 whole entry): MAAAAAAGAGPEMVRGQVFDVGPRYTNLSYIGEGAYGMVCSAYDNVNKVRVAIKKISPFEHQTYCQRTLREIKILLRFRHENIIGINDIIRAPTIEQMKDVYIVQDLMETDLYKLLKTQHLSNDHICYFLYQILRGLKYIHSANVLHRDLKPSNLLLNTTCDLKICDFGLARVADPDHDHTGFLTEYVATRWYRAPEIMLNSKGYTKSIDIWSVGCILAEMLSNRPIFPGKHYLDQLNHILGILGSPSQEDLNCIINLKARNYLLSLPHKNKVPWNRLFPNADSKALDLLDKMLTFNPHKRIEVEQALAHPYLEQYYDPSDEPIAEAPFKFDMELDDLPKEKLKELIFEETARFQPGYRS
5-hydroxytryptamine receptor 1D (Homo sapiens), sequence (P28221 whole entry): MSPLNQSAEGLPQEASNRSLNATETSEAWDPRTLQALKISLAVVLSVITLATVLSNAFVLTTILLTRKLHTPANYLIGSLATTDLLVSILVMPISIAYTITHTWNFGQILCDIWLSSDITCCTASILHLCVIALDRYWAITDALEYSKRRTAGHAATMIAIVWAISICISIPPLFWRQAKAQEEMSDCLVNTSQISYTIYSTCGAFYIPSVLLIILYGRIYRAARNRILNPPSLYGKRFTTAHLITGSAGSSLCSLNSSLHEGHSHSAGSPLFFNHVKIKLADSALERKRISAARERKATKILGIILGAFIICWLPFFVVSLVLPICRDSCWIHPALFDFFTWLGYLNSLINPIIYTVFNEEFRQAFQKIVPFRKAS
AMPK alpha2/beta1/gamma1 (Homo sapiens), sequence (P54619 whole entry partner): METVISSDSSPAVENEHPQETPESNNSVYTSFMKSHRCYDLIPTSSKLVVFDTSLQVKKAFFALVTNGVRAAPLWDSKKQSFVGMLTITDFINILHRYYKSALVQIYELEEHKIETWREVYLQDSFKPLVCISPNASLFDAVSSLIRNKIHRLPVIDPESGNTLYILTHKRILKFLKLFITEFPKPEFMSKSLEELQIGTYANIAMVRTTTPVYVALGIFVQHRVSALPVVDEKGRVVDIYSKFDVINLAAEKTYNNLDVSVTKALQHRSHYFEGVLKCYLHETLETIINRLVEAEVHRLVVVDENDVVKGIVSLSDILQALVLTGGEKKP
AMPK alpha2/beta1/gamma1 (Homo sapiens), sequence (P54646 whole entry): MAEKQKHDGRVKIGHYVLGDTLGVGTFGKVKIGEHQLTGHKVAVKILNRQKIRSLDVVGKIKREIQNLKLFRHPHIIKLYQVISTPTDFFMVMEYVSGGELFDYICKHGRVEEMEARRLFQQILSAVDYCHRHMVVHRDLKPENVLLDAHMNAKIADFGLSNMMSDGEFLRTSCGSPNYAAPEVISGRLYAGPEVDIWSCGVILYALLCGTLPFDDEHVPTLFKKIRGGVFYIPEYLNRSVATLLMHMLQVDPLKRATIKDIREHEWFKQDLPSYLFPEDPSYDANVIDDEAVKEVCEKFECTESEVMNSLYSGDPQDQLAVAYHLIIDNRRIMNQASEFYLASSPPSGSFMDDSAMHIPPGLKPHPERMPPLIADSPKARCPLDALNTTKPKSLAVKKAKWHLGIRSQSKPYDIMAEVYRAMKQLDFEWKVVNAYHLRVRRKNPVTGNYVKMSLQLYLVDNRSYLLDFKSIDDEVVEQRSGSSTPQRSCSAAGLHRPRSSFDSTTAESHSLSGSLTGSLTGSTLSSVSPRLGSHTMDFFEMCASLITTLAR
AMPK alpha2/beta1/gamma1 (Homo sapiens), sequence (Q9Y478 2-270 partner limits assumed): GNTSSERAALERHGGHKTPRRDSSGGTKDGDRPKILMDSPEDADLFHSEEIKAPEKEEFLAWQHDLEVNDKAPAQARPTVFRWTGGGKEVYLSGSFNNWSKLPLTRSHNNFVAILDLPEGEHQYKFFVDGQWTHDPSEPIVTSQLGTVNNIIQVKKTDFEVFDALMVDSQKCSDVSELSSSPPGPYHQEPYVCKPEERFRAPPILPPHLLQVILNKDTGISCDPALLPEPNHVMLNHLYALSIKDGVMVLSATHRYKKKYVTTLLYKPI
Cyclin-dependent kinase 9 (Homo sapiens), sequence (P50750 whole entry): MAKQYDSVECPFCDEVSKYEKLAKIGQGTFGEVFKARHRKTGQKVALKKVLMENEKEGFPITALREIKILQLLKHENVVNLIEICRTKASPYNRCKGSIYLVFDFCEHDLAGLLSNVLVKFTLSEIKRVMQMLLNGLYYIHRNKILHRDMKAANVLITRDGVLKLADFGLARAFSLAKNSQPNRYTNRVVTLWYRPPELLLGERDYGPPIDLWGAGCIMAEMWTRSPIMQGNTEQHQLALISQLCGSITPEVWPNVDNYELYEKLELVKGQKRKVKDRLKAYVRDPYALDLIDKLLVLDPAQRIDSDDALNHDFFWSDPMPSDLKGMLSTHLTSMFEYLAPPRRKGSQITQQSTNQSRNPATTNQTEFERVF

CCC(F)(F)c1cc(N2CCC(S(C)(=O)=O)CC2)nc2sc(C(N)=O)c(N)c12 [BI-605906]
residual activity [1]: 103%
residual activity [2]: 86%
residual activity [3]: 97%
residual activity [4]: 88%
residual activity ([5]; Compound concentration 1.0 uM): 96%
residual activity ([5]; Compound concentration 10.0 uM): 86%
inhibition [6]: 18%
inhibition [7]: 8%
residual activity [8]: 106%
inhibition (Rattus norvegicus): 51.9%
residual activity [9]: 105%
residual activity [10]: 110%
residual activity [11]: 78.2%
residual activity [12]: 95%
residual activity [13]: 97%
residual activity [14]: 100%
residual activity [15]: 93.8%
residual activity [16]: 93%
residual activity ([17]; Compound concentration 10.0 uM): 103%
residual activity [17, 41]: 102%
residual activity [18]: 63.8%
residual activity [19]: 80%
inhibition [20]: 21.1%
residual activity [21]: 127%
residual activity [22]: 113%
residual activity ([23]; Compound concentration 1.0 uM): 92%
residual activity ([23]; Compound concentration 10.0 uM): 101%
residual activity [24]: 98%
residual activity ([25]; Compound concentration 1.0 uM): 93%
residual activity ([25]; Compound concentration 10.0 uM): 87%
residual activity [26]: 88%
residual activity [27]: 101%
residual activity ([28]; Compound concentration 1.0 uM): 92%
residual activity ([28]; Compound concentration 10.0 uM): 60%
residual activity [29]: 97%
residual activity [30]: 91%
residual activity [31]: 97%
IC50 [32]: 49 nM (active)
residual activity [33]: 97%
residual activity [34]: 83%
residual activity ([35]; Compound concentration 10.0 uM): 99%
residual activity [35, 41]: 89%
residual activity [36]: 88%
residual activity [37]: 100%
residual activity [38]: 94%
residual activity [39]: 96%
inhibition [40]: 26.9%
